4 molecules from the NIST ThermoML archive (doi:10.1016/j.fluid.2004.12.007) can be followed below.

What is called mass density is mass per unit of volume. A word on the vapor or sublimation pressure: it is the equilibrium pressure above the liquid or solid.

Numbers after ± are expanded uncertainties.

For the series the following is noted: Liquid; for mass density: 298.15 K, 101.33 kPa.

Consider `CC(C)CC(C)(C)C` [2,2,4-trimethylpentane], for which the mass density came to 687.72 ± 0.9 kg/m3. Further, the “vapor or sublimation pressure” value (370.45 K) is listed as 95.96 ± 0.59 kPa. Besides, the “vapor or sublimation pressure” value (372.45 K) came out at 101.3 ± 0.6 kPa.
Consider `COC(C)(C)C` [2-methoxy-2-methylpropane], for which the mass density was determined as 735.4 ± 0.97 kg/m3. Also, the “vapor or sublimation pressure” value (326.55 K) turned out to be 95.96 ± 0.64 kPa. For the same molecule, the “vapor or sublimation pressure” value (328.35 K) was determined as 101.3 ± 0.6 kPa.
For the molecule `CC(C)OC(C)C` [diisopropyl ether], the mass density stood at 718.14 ± 0.95 kg/m3. For the same molecule, the “vapor or sublimation pressure” value (339.95 K) came out at 95.96 ± 0.8 kPa. The “vapor or sublimation pressure” value (341.35 K) amounted to 101.3 ± 0.8 kPa.
Regarding `COCOC` [dimethoxymethane], the mass density is 847.51 ± 1.1 kg/m3. In addition, the “vapor or sublimation pressure” value (313.75 K) worked out at 95.96 ± 0.75 kPa. In addition, the “vapor or sublimation pressure” value (315.25 K) is reported as 101.3 ± 0.8 kPa.
